Columns and labels:
Type in all cases: biochemical
[1] = Salicylic Acid Test (hydroxylation of salicylic acid by hydroxyl radicals, 490 nm); conditions: sample concentration 0.3 % b.w., average of 2 measurements
Procedure: In a second test, the hydroxylation of salicylic acid by hydroxyl radicals (from the reaction of hydrogen peroxide with iron(III) ions and EDTA) was investigated as a reference system. This reaction can also be photometrically investigated because the hydroxylation product is reddish in colour. The influence of the extracts on the formation of hydroxysalicylic acid was measured at an optical density of 490 nm. The results are also set out in Table 1 where inhibition is again shown in % absolute ("Salicylic Acid Test"). Table 1 Radical-trapping properties in % absolute (results are averages of 2 measurements)

[2] = Deoxyribose oxidation by hydroxyl radicals (thiobarbituric acid, 532 nm), with or without EDTA; conditions: sample concentration 0.3 % b.w., average of 2 measurements
Procedure: In the following test, deoxyribose was used as the test substance. In the presence of hydroxyl radicals formed from H2O2 in the presence of Fe^2+ and EDTA, deoxyribose is oxidized. A pink-coloured substance is formed from the oxidized form by condensation with thiobarbituric acid. The optical density was determined at 532 nm and is dependent on the content of oxidized deoxyribose. A radical-trapping substance reacts with the hydroxyl radicals formed and reduces the formation of pink-coloured substances in this reaction mixture. In addition, the same reaction was carried out without EDTA to investigate complexing properties of the extract with Fe^2+ ions. The concentration of the samples has been again 0.3 % b.w. Table 2 Radical-trapping properties with desoxyribose in % absolute (results are averages of 2 measurements)

xanthine oxidase = experiment: Xanthine oxidase test (superoxide radicals detected with luminol, luminol + microperoxidase or NBT); conditions: sample concentration 0.3 % b.w., average of 2 measurements; for Test with xanthan oxidase, inhibition, NBT: optical density at 490 nm
Source text: In the next test, the radical-trapping properties of the test samples were investigated using xanthine oxidase as the test system. Under oxidative stress, the enzyme converts purine bases, for example, adenine or guanine, into uric acid with intermediate formation of oxygen radicals which are spontaneously decomposed into H2O2 and oxygen by Superoxid-Dismutase (SOD). These Superoxid radicals can be detected and quantitatively determined by reaction with luminol or luminol and microperoxidase and by NBT via the luminescence and the optical density at 490 nm. The luminescence yield diminishes in the presence of substances with radical-trapping properties. The concentration of the test samples has been at 0.3 % b.w. again. The results are set out in Table 3 where the inhibition is shown in % absolute ("Luminol Test"). Table 3 Test with xanthan oxidase in % absolute (results are averages of 2 measurements)

[3] = DPPH Test (radical trapping, photometric at 513 nm); conditions: Batch A; sample concentration 0.3 % b.w.; average of 2 measurements
Source text: In a first series of tests, the effectiveness of the extracts against oxidative stress was investigated by chemical methods. A commercially available extract of tomatoes, CLA (Tonalin® CLA, Cognis) and their mixtures were used in concentrations of 0.3 % b.w. The first test substrate selected was diphenyl picryl hydrazyl (DPPH), a purple-red coloured stable radical which changes into its colourless leuco derivative on contact with radical trappers. The change of colour was followed photometrically at 513 nm. The test results are set out in Table 1 ("DPPH Test") where the inhibition of DPPH is shown in % absolute.

- Test with xanthan oxidase, inhibition, Luminol + Microperoxidase (xanthine oxidase; Batch A): 5 % absolute
- Test with xanthan oxidase, inhibition, Luminol + Microperoxidase (xanthine oxidase; Batch B): 7 % absolute
- Test with xanthan oxidase, inhibition, Luminol (xanthine oxidase; Batch A): 3 % absolute
- Test with xanthan oxidase, inhibition, Luminol (xanthine oxidase; Batch B): 3 % absolute
- Test with xanthan oxidase, inhibition, NBT (xanthine oxidase; Batch A): 1 % absolute
- Test with xanthan oxidase, inhibition, NBT (xanthine oxidase; Batch B): 1 % absolute
Substance: conjugated linoleic acid [C2]
- Salicylic Acid Test, inhibition ([1]; Batch A): 5 % absolute
- Salicylic Acid Test, inhibition ([1]; Batch B): 5 % absolute
- Radical-trapping properties with desoxyribose, Reaction with EDTA ([2]; Batch A): 1 % absolute
- Radical-trapping properties with desoxyribose, Reaction with EDTA ([2]; Batch B): 0 % absolute
- Radical-trapping properties with desoxyribose, Reaction without EDTA ([2]; Batch A): 0 % absolute
- Radical-trapping properties with desoxyribose, Reaction without EDTA ([2]; Batch B): 0 % absolute
- DPPH Test, inhibition of DPPH [3]: 18 % absolute

Reference: patent EP1618800A1, “Active compositions comprising lycopene, cytidin and fatty acids” (Cognis IP Management GmbH, priority 2004, dated 2006)
